From PubChem BioAssay (NCI)
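Compound exposure: 48 hours, 5 concentrations, 96-well plates. GI50 is the concentration that inhibits growth by half. At the TGI there is no net growth.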

Experiments:
Assay in all cases: DTP human tumour cell line panel, 48 h
RXF 393 renal = tested on: RXF 393 renal
NCI-H23 lung = tested on: NCI-H23 lung
RPMI-8226 leukemia = tested on: RPMI-8226 leukemia
HOP-92 NSCLC = tested on: HOP-92 NSCLC
DU-145 prostate = tested on: DU-145 prostate
M14 melanoma = tested on: M14 melanoma
K-562 leukemia = tested on: K-562 leukemia
A498 renal = tested on: A498 renal
HS 578T breast = tested on: HS 578T breast
HT29 colon = tested on: HT29 colon
OVCAR-3 ovarian = tested on: OVCAR-3 ovarian
SR leukemia = tested on: SR leukemia
MOLT-4 leukemia = tested on: MOLT-4 leukemia
U251 CNS = tested on: U251 CNS
SF-539 CNS = tested on: SF-539 CNS
OVCAR-4 ovarian = tested on: OVCAR-4 ovarian
MDA-MB-468 breast = tested on: MDA-MB-468 breast
A549 NSCLC = tested on: A549 NSCLC
PC-3 prostate = tested on: PC-3 prostate
KM12 colon = tested on: KM12 colon
COLO 205 colon = tested on: COLO 205 colon
IGROV1 ovarian = tested on: IGROV1 ovarian
SK-MEL-28 melanoma = tested on: SK-MEL-28 melanoma
SF-295 CNS = tested on: SF-295 CNS
NCI/ADR-RES ovarian = tested on: NCI/ADR-RES ovarian
HCT-15 colon = tested on: HCT-15 colon
NCI-H460 lung = tested on: NCI-H460 lung
OVCAR-5 ovarian = tested on: OVCAR-5 ovarian

**Q.** What does the source list for `O=C1Nc2ccc(F)cc2/C1=C/c1cccc(OCc2ccccn2)c1`?
**A.** TGI (RXF 393 renal): 26.4 µM; GI50 (NCI-H23 lung): 15 µM; TGI (NCI-H23 lung): 28.8 µM; GI50 (RPMI-8226 leukemia): 17.3 µM; TGI (RPMI-8226 leukemia): 48 µM; GI50 (HOP-92 NSCLC): 11.3 µM; TGI (HOP-92 NSCLC): 36.3 µM; GI50 (DU-145 prostate): 18.2 µM; TGI (DU-145 prostate): 33.5 µM; GI50 (M14 melanoma): 15.7 µM; TGI (M14 melanoma): 31.5 µM; GI50 (K-562 leukemia): 17.5 µM; TGI (K-562 leukemia): 57.3 µM; GI50 (A498 renal): 54.3 µM; TGI (A498 renal): > 100 µM; GI50 (HS 578T breast): 17.6 µM; TGI (HS 578T breast): 63.3 µM; GI50 (HT29 colon): 17.5 µM; TGI (HT29 colon): 34.7 µM; GI50 (OVCAR-3 ovarian): 15.2 µM; TGI (OVCAR-3 ovarian): 32.4 µM; GI50 (SR leukemia): 16.4 µM; TGI (SR leukemia): 42.6 µM; GI50 (MOLT-4 leukemia): 17.5 µM; TGI (MOLT-4 leukemia): 40 µM; GI50 (U251 CNS): 15.2 µM; TGI (U251 CNS): 33.3 µM; GI50 (SF-539 CNS): 16.3 µM; TGI (SF-539 CNS): 30.4 µM; GI50 (OVCAR-4 ovarian): 22 µM; TGI (OVCAR-4 ovarian): 63.3 µM; GI50 (MDA-MB-468 breast): 14.2 µM; TGI (MDA-MB-468 breast): 29.3 µM; GI50 (A549 NSCLC): 18.9 µM; TGI (A549 NSCLC): 59.9 µM; GI50 (PC-3 prostate): 18.7 µM; TGI (PC-3 prostate): 48.7 µM; GI50 (KM12 colon): 19 µM; TGI (KM12 colon): 37.3 µM; GI50 (COLO 205 colon): 16.3 µM; TGI (COLO 205 colon): 31 µM; GI50 (IGROV1 ovarian): 17 µM; TGI (IGROV1 ovarian): 36.2 µM; GI50 (SK-MEL-28 melanoma): 18.4 µM; TGI (SK-MEL-28 melanoma): 37.1 µM; GI50 (SF-295 CNS): 16 µM; TGI (SF-295 CNS): 30.3 µM; GI50 (NCI/ADR-RES ovarian): 16.8 µM; TGI (NCI/ADR-RES ovarian): 39.3 µM; GI50 (HCT-15 colon): 16.5 µM; TGI (HCT-15 colon): 34.4 µM; GI50 (NCI-H460 lung): 19.8 µM; TGI (NCI-H460 lung): 44.4 µM; GI50 (OVCAR-5 ovarian): 16 µM; TGI (OVCAR-5 ovarian): 31 µM
